According to ChEMBL document CHEMBL3045872, “The Design and Synthesis of a Novel, Orally Active, Selective ETA Antagonist” (Med Chem Res, 2004):
pIC50, pKi: −log10 of the molar value. Blank lines part the entries; values can stand above or below the compound they belong to.

Experiments:
[1] = Volume of distribution in Rattus norvegicus Sprague-Dawley (rat) at 2 mg/kg, iv; format: ADME, organism-based; set-up: dose 2 mg/kg, route intravenous; conditions: in vivo
[2] = biological target: T1, Endothelin-1 receptor (Homo sapiens, UniProt P25101); experiment: Displacement of [I125]ET1 from Homo sapiens (human) ETA receptor expressed in CHO cells; format: cell-based
T1 sequence (P25101 whole entry): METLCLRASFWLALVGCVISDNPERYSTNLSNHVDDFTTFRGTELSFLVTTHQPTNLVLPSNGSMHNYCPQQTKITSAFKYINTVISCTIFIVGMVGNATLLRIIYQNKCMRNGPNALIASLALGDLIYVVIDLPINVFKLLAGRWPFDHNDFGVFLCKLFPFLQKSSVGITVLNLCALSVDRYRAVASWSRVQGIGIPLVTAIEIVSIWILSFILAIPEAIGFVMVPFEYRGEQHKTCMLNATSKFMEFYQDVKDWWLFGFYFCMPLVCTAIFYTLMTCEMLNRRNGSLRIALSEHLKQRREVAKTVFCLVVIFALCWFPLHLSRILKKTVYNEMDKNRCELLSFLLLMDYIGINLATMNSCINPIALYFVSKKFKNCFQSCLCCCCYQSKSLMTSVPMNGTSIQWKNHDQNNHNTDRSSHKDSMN

[3] = biological target: T2, Endothelin receptor type B (Homo sapiens, UniProt P24530); experiment: Displacement of [I125]ET1 from Homo sapiens (human) ETB receptor expressed in CHO cells; format: cell-based
T2 sequence (P24530 whole entry): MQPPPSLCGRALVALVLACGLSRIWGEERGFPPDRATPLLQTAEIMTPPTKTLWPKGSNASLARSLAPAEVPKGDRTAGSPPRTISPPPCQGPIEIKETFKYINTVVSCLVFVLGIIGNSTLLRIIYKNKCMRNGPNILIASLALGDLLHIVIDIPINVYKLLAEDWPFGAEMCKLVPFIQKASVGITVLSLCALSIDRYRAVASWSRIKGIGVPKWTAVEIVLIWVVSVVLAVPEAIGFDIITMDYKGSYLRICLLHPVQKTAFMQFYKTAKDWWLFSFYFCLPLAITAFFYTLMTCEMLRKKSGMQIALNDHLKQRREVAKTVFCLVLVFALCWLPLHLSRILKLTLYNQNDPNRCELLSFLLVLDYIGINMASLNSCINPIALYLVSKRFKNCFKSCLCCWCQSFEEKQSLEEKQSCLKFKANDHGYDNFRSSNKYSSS

[4] = test system: Rattus norvegicus; experiment: Unbound clearance in Rattus norvegicus Sprague-Dawley (rat) at 2 mg/kg, iv; format: ADME, organism-based; set-up: dose 2 mg/kg, route intravenous; conditions: in vivo
[5] = Drug absorption in Rattus norvegicus Sprague-Dawley (rat) at 2 mg/kg, iv; format: ADME, organism-based; set-up: dose 2 mg/kg, route intravenous; conditions: in vivo, read-out: Drug absorption
[6] = Fraction unbound in Rattus norvegicus Sprague-Dawley (rat) at 2 mg/kg, iv; format: ADME, organism-based; set-up: dose 2 mg/kg, route intravenous; conditions: in vivo
[7] = Permeability of the compound across Homo sapiens (human) Caco2 cells; format: ADME, cell-based; conditions: Caco-2, read-out: permeability
[8] = Elimination half life in Rattus norvegicus (rat) at 2 mg/kg, iv; format: ADME, organism-based; set-up: dose 2 mg/kg, route intravenous; conditions: in vivo, read-out: beta t1/2 (converted)
[9] = test system: Liver cytosol; experiment: Prodrug conversion in male Rattus norvegicus (rat) liver cytosol assessed as (S)-3-(1-(benzo[d][1,3]dioxol-5-yl)-2-(2-methoxy-4-methylphenylsulfonamido)-2-oxoethyl)-1-methyl-1H-indole-6-carboxylic acid formation; format: ADME, tissue-based
[10] = test system: Rattus norvegicus; experiment: Prodrug conversion in Rattus norvegicus (rat) assessed as (S)-3-(1-(benzo[d][1,3]dioxol-5-yl)-2-(2-methoxy-4-methylphenylsulfonamido)-2-oxoethyl)-1-methyl-1H-indole-6-carboxylic acid level at 2 mg/kg, po; format: ADME, organism-based; set-up: dose 2 mg/kg, route oral; conditions: in vivo
[11] = test system: Liver cytosol; experiment: Prodrug conversion in Homo sapiens (human) liver cytosol assessed as (S)-3-(1-(benzo[d][1,3]dioxol-5-yl)-2-(2-methoxy-4-methylphenylsulfonamido)-2-oxoethyl)-1-methyl-1H-indole-6-carboxylic acid formation; format: ADME, tissue-based
[12] = test system: Rattus norvegicus; experiment: Tmax in Rattus norvegicus (rat) assessed as (S)-3-(1-(benzo[d][1,3]dioxol-5-yl)-2-(2-methoxy-4-methylphenylsulfonamido)-2-oxoethyl)-1-methyl-1H-indole-6-carboxylic acid level at 2 mg/kg, po; format: ADME, organism-based; set-up: dose 2 mg/kg, route oral; conditions: in vivo
[13] = test system: Rattus norvegicus; experiment: Apparent elimination half life in Rattus norvegicus (rat) assessed as (S)-3-(1-(benzo[d][1,3]dioxol-5-yl)-2-(2-methoxy-4-methylphenylsulfonamido)-2-oxoethyl)-1-methyl-1H-indole-6-carboxylic acid level at 2 mg/kg, po; format: ADME, organism-based; set-up: dose 2 mg/kg, route oral; conditions: in vivo
[14] = Inhibition of endothelin converting enzyme (unknown origin); set-up: species or system Homo sapiens
[15] = Tmax in Rattus norvegicus (rat) at 2 mg/kg, po; format: ADME, organism-based; set-up: dose 2 mg/kg, route oral; conditions: in vivo
[16] = Half life in Canis lupus familiaris (dog) liver microsome at 1 uM; format: ADME; conditions: liver microsomes
[17] = Cmax in Rattus norvegicus (rat) at 2 mg/kg, po; format: ADME, organism-based; set-up: dose 2 mg/kg, route oral; conditions: in vivo
[18] = test system: Liver cytosol; experiment: Prodrug conversion in Sus scrofa (pig) liver cytosol assessed as (S)-3-(1-(benzo[d][1,3]dioxol-5-yl)-2-(2-methoxy-4-methylphenylsulfonamido)-2-oxoethyl)-1-methyl-1H-indole-6-carboxylic acid formation; format: ADME, tissue-based
[19] = Plasma clearance in Rattus norvegicus (rat) at 2 mg/kg, iv; format: ADME, organism-based; set-up: dose 2 mg/kg, route intravenous
[20] = test system: Rattus norvegicus; experiment: Prodrug conversion in Rattus norvegicus (rat) assessed as (S)-3-(1-(benzo[d][1,3]dioxol-5-yl)-2-(2-methoxy-4-methylphenylsulfonamido)-2-oxoethyl)-1-methyl-1H-indole-6-carboxylic acid level at 2 mg/kg, iv; format: ADME, organism-based; set-up: dose 2 mg/kg, route intravenous; conditions: in vivo
[21] = test system: Canis familiaris; experiment: Cardiotoxicity in Canis lupus familiaris (dog) assessed as change in ECG at 1.5 to 15 mg/kg, po; format: toxicity, organism-based; set-up: dose 1.5-15 mg/kg, route oral; conditions: in vivo
[22] = Half life in Rattus norvegicus (rat) liver microsome at 1 uM; format: ADME; conditions: liver microsomes
[23] = test system: Rattus norvegicus; experiment: Cmax in Rattus norvegicus (rat) assessed as (S)-3-(1-(benzo[d][1,3]dioxol-5-yl)-2-(2-methoxy-4-methylphenylsulfonamido)-2-oxoethyl)-1-methyl-1H-indole-6-carboxylic acid level at 2 mg/kg, po; format: ADME, organism-based; set-up: dose 2 mg/kg, route oral; conditions: in vivo
[24] = Volume of distribution in Rattus norvegicus (rat) at 2 mg/kg, iv; format: ADME, organism-based; set-up: dose 2 mg/kg, route intravenous; conditions: in vivo
[25] = test system: Canis familiaris; experiment: Cardiotoxicity in Canis lupus familiaris (dog) assessed as change in heart rate at 1.5 to 15 mg/kg, po; format: toxicity, organism-based; set-up: dose 1.5-15 mg/kg, route oral; conditions: in vivo
[26] = test system: Rattus norvegicus; experiment: Drug absorption in Rattus norvegicus (rat) assessed as (S)-3-(1-(benzo[d][1,3]dioxol-5-yl)-2-(2-methoxy-4-methylphenylsulfonamido)-2-oxoethyl)-1-methyl-1H-indole-6-carboxylic acid level at 2 mg/kg; format: ADME, organism-based; set-up: dose 2 mg/kg; conditions: in vivo
[27] = Half life in Homo sapiens (human) liver microsome at 1 uM; format: ADME; conditions: liver microsomes
[28] = test system: Rattus norvegicus; experiment: Toxicity in Rattus norvegicus (rat) at 30 mg/kg, po QD for 5 days; format: organism-based; set-up: dose 30 mg/kg, route oral; conditions: in vivo, 120 h
[29] = test system: Canis familiaris; experiment: Cardiotoxicity in Canis lupus familiaris (dog) assessed as change in left ventricular contractility at 1.5 to 15 mg/kg, po; format: toxicity, organism-based, Heart left ventricle; set-up: dose 1.5-15 mg/kg, route oral; conditions: in vivo

Vd [1]: 4 L/kg
pIC50 [2]: 7.85
pIC50 [3]: 6.66
CL free [4]: 1740 mL/min/kg
Fa [5]: 100%
Fu [6]: 0.005%
Papp [7]: 5 ×10⁻⁶ cm/s
Compound: COc1cc(C)ccc1S(=O)(=O)NC(=O)C(c1ccc2c(c1)OCO2)c1cn(C)c2cc(F)ccc12 (racemic)

Vd [1]: 0.6 L/kg
pIC50 [3]: 6.56
CL free [4]: 1329 mL/min/kg
Fa [5]: < 5%
Fu [6]: 0.007%
Papp [7]: 1.6 ×10⁻⁶ cm/s
Compound: COc1cc(C)ccc1S(=O)(=O)NC(=O)C(c1ccc2c(c1)OCO2)c1cn(C)c2cc(C(N)=O)ccc12 (racemic)

pIC50 [2]: 8.38
pIC50 [14]: 3.49
pIC50 [3]: 6.46
pKi [3]: 5.84
Compound: COc1cc(C)ccc1S(=O)(=O)NC(=O)[C@@H](c1ccc2c(c1)OCO2)c1cn(C)c2cc(C(=O)O)ccc12

pIC50 [2]: 7.34
pIC50 [3]: 6.66
Compound: COc1cc(C)ccc1S(=O)(=O)NC(=O)C(c1ccc2c(c1)OCO2)c1cn(C)c2cc(Cl)ccc12 (racemic)

Vd [1]: 0.6 L/kg
pIC50 [2]: 8.28
pIC50 [3]: 6.19
CL free [4]: 609 mL/min/kg
Fa [5]: < 5%
Fu [6]: 0.01%
Papp [7]: < 0.5 ×10⁻⁶ cm/s
Compound: COc1cc(C)ccc1S(=O)(=O)NC(=O)C(c1ccc2c(c1)OCO2)c1cn(C)c2cc(C(=O)O)ccc12 (racemic)

pIC50 [2]: 7.74
pIC50 [3]: 6.62
Compound: CCOC(=O)c1ccc2c(C(C(=O)NS(=O)(=O)c3ccc(C)cc3OC)c3ccc4c(c3)OCO4)cn(C)c2c1 (racemic)

Vd [1]: 5 L/kg
pIC50 [2]: 8.85
pIC50 [3]: 6.04
CL free [4]: 17000 mL/min/kg
Fa [5]: 70%
Fu [6]: 0.002%
Papp [7]: 20 ×10⁻⁶ cm/s
Compound: COc1cc(C)ccc1S(=O)(=O)NC(=O)C(c1ccc2c(c1)OCO2)c1cn(C)c2cc(C(C)=O)ccc12 (racemic)

Vd [1]: 1.2 L/kg
pIC50 [2]: 8.06
pIC50 [3]: 6.61
CL free [4]: 7200 mL/min/kg
Fa [5]: 55%
Fu [6]: 0.01%
Papp [7]: 1.2 ×10⁻⁶ cm/s
Compound: COc1cc(C)ccc1S(=O)(=O)NC(=O)C(c1ccc2c(c1)OCO2)c1cn(C)c2cc(CO)ccc12 (configuration not stated)

Further lines, the compound ahead of its results:

Compound: CCn1cc(C(C(=O)NS(=O)(=O)c2ccc(C(C)C)cc2)c2ccc3c(c2)OCO3)c2ccccc21 (racemic)
pIC50 [2]: 6.25

Compound: CC(C)c1ccc(S(=O)(=O)NC(=O)C(c2ccc3c(c2)OCO3)c2cn(C)c3cc(C(N)=O)ccc23)cc1 (racemic)
pIC50 [3]: 7.82

Compound: COc1cc(C)ccc1S(=O)(=O)NC(=O)[C@@H](c1ccc2c(c1)OCO2)c1cn(C)c2cc(CO)ccc12
half-life [8]: 1.1 h
Drug metabolism [9]: Active
Drug metabolism [10]: Active
Drug metabolism [11]: Active
Tmax [12]: 4 h
pIC50 [2]: 8.66
pKi [2]: 8.66
betat1/2(app) [13]: 9 h
pIC50 [14]: 3.12
Tmax [15]: 0.25 h
pIC50 [3]: 6.17
pKi [3]: 5.82
half-life at 1 µM [16]: > 2 h
Cmax [17]: 48 ng/mL
Drug metabolism [18]: Active
clearance [19]: 1.7 mL/min/kg
Drug metabolism [20]: Active
Activity [21]: Non-toxic
half-life at 1 µM [22]: > 2 h
Cmax [23]: 83 ng/mL
Vd [24]: 0.16 L/kg
Activity [25]: Non-toxic
Drug absorption [26]: 36%
half-life at 1 µM [27]: > 2 h
Activity [28]: Non-toxic
Activity [29]: Non-toxic

Compound: Cc1ccc(S(=O)(=O)NC(=O)C(c2ccc3c(c2)OCO3)c2cn(C)c3cc(CO)ccc23)cc1 (racemic)
pIC50 [2]: 7.47

Compound: Cn1cc(C(C(=O)NS(=O)(=O)c2ccc(CC(=O)O)cc2)c2ccc3c(c2)OCO3)c2ccc(C(N)=O)cc21 (racemic)
Vd [1]: 0.3 L/kg
pIC50 [2]: 8.77
pIC50 [3]: 6.24
CL free [4]: 138 mL/min/kg
Fa [5]: < 5%
Fu [6]: 0.048%
Papp [7]: < 0.5 ×10⁻⁶ cm/s

Compound: COCc1ccc2c(C(C(=O)NS(=O)(=O)c3ccc(C)cc3OC)c3ccc4c(c3)OCO4)cn(C)c2c1 (racemic)
pIC50 [2]: 8.06
pIC50 [3]: 5.94

Compound: CCn1cc(C(C(=O)NS(=O)(=O)c2ccc(C(C)C)cc2)c2ccc3c(c2)OCO3)c2ccc(C(=O)O)cc21 (racemic)
pIC50 [3]: 7.16

Compound: COc1cc(C)ccc1S(=O)(=O)NC(=O)C(c1ccc2c(c1)OCO2)c1cn(C)c2cc(C#N)ccc12 (racemic)
Vd [1]: 2.8 L/kg
pIC50 [2]: 7.96
pIC50 [3]: 6.38
CL free [4]: 19000 mL/min/kg
Fu [6]: 0.002%
Papp [7]: 20 ×10⁻⁶ cm/s
